Measurements as given in ChEMBL document CHEMBL1201862, “PubChem BioAssay data set” (2004).
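Five concentrations, 48 hours, 96-well plates. GI50 = concentration required for 50% inhibition of growth.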 Active and inactive are the calls of the source. Cut-off read from the data, not from the text of the source: active = GI50 up to about 1.1 µM and inactive = higher.

Assays:
Assay in all cases: DTP human tumour cell line panel, 48 h
[1] = test system: DU-145
[2] = test system: OVCAR-5
[3] = test system: Malme-3M
[4] = test system: SNB-19
[5] = test system: MDA-MB-435
[6] = test system: NCI/ADR-RES
[7] = test system: HCC 2998
[8] = test system: NCI-H460
[9] = test system: RXF 393
[10] = test system: U-251
[11] = test system: UO-31
[12] = test system: NCI-H522
[13] = test system: TK-10
[14] = test system: SF-268
[15] = test system: A549
[16] = test system: KM12
[17] = test system: K562
[18] = test system: OVCAR-8
[19] = test system: MOLT-4
[20] = test system: MDA-N
[21] = test system: Hs-578T
[22] = test system: CAKI-1
[23] = test system: BT-549
[24] = test system: HOP-62
[25] = test system: COLO 205
[26] = test system: SK-MEL-28
[27] = test system: 786-0
[28] = test system: OVCAR-4
[29] = test system: HCT-116
[30] = test system: PC-3
[31] = test system: HCT-15
[32] = test system: T47D
[33] = test system: HOP-92
[34] = test system: NCI-H226
[35] = test system: SNB-75
[36] = test system: HT-29
[37] = test system: M14
[38] = test system: HL-60
[39] = test system: SK-MEL-2
[40] = test system: SW-620
[41] = test system: RPMI-8226
[42] = test system: SK-MEL-5
[43] = test system: CCRF-CEM
[44] = test system: SF-539
[45] = test system: SR
[46] = test system: LOX IMVI
[47] = test system: NCI-H23
[48] = test system: OVCAR-3
[49] = test system: UACC-257
[50] = test system: MCF7
[51] = test system: IGROV-1
[52] = test system: SN12C
[53] = test system: UACC-62
[54] = test system: A498
[55] = test system: ACHN
[56] = test system: EKVX
[57] = test system: MDA-MB-231
[58] = test system: SK-OV-3
[59] = test system: SF-295

Measured: GI50

Cc1cc(N)ccc1C=O
inactive: [1] > 100 µM | [2] > 100 µM | [3] > 100 µM | [4] > 100 µM | [5] > 100 µM | [6] > 100 µM | [7] > 100 µM | [8] > 100 µM | [9] > 100 µM | [10] > 100 µM | [11] > 100 µM | [12] > 100 µM | [13] > 100 µM | [14] > 100 µM | [15] > 100 µM | [16] > 100 µM | [17] > 100 µM | [18] > 100 µM | [19] > 100 µM | [20] > 100 µM | [21] > 100 µM | [22] > 100 µM | [23] > 100 µM | [24] > 100 µM | [25] > 100 µM | [26] > 100 µM | [27] > 100 µM | [28] > 100 µM | [29] > 100 µM | [30] > 100 µM | [32] > 100 µM | [33] > 100 µM | [34] > 100 µM | [35] > 100 µM | [36] > 100 µM | [37] > 100 µM | [38] > 100 µM | [39] > 100 µM | [40] > 100 µM | [41] > 100 µM | [42] > 100 µM | [43] > 100 µM | [44] > 100 µM | [45] > 100 µM | [46] > 100 µM | [47] > 100 µM | [48] > 100 µM | [49] > 100 µM | [50] > 100 µM | [51] > 100 µM | [52] > 100 µM | [53] > 100 µM | [54] > 100 µM | [55] > 100 µM | [56] > 100 µM | [57] > 100 µM | [58] > 100 µM
> 100 µM: [31]

CC(=O)OC[C@@]1(C)[C@@H]2[C@@H]3[C@@]4(CO[C@]3(C)C(=O)[C@@]3(O)C[C@H](C)[C@H](OC(C)=O)[C@@H]3[C@H]4OC(C)=O)[C@H](OC(=O)c3ccccc3)C[C@@H]21
> 100 µM: [31]
inactive: [1] > 100 µM | [2] > 100 µM | [59] > 100 µM | [3] > 100 µM | [4] > 100 µM | [5] > 100 µM | [6] > 100 µM | [7] > 100 µM | [8] > 100 µM | [9] > 100 µM | [10] > 100 µM | [11] > 100 µM | [12] > 100 µM | [13] > 100 µM | [14] > 100 µM | [15] > 100 µM | [16] > 100 µM | [17] > 100 µM | [18] > 100 µM | [19] > 100 µM | [20] > 100 µM | [21] > 100 µM | [22] > 100 µM | [23] > 100 µM | [24] > 100 µM | [25] > 100 µM | [26] > 100 µM | [27] > 100 µM | [28] > 100 µM | [29] > 100 µM | [30] > 100 µM | [32] > 100 µM | [33] > 100 µM | [34] > 100 µM | [35] > 100 µM | [36] > 100 µM | [37] > 100 µM | [38] > 100 µM | [39] > 100 µM | [40] > 100 µM | [41] > 100 µM | [42] > 100 µM | [43] > 100 µM | [44] > 100 µM | [45] > 100 µM | [46] > 100 µM | [47] > 100 µM | [48] > 100 µM | [49] > 100 µM | [50] > 100 µM | [51] > 100 µM | [52] > 100 µM | [53] > 100 µM | [54] > 100 µM | [55] > 100 µM | [56] > 100 µM | [57] > 100 µM | [58] > 100 µM
